# Source: patent US20040248099A1, “Use of intermediate -conductance potassium channels and modulators for diagnosing and treating diseases having disturbed keratinocyte activity” (priority 2000, published 2004)
# “Also recorded” adds a separate entry of the source.
# Key:
# [1] = tested on: HaCaT keratinocytes; assay: Patch-clamp recording of the membrane potential of HaCaT keratinocytes (current clamp; ATP-induced response); assay type: cell-based, human; details: for blockers leading to a comparable depolarization on a plateau during treatment with ATP: other K+ channel blockers tested
# Protocol: In order to identify an ion channel which is substantially involved in the transduction of wound healing-specific signals, HaCaT cells were investigated electrophysiologically. The HaCaT keratinocytes were propagated in DEM containing 10% FCS (Gibco BRL) to which antibiotics (penicillin/streptomycin, 100 U/ml) had been added. […] The patch pipettes were prepared from small borosilicate tubes on a horizontal pulling device (DMZ, Zeitz) using the two-step pulling method. […] The resistance of these patch pipettes was 5-8 GΩ in the bath. After a seal in the GΩ range had been produced (typically 1.5-2 GΩ) the amplifier was switched to current clamp mode. […] The electrophysiological signals were recorded, amplified and digitalized using an Axopatch 200 amplifier in combination with a TL-1 Labmaster Interface and AXOTAPE software (Axon Instruments). The statistical analysis (one-way ANOVA with Bonferri post-test comparison) was carried out using Graphpad prism 2.0. […]
# The inflow of liquid was gravity-dependent and was controlled by means of magnetic valves. Outflow was effected by applying a negative pressure using a vacuum pump. Substances were added, while observing visually, directly into the keratinocytes under investigation using a remotely controlled, magnet-controlled Y tube system (diameter of the efflux tube: 100 μm).
# The electrophysiological recordings were carried out, using perforated patches, on HaCaT cells which had grown into a confluent monolayer.
# [2] = tested on: HaCaT keratinocytes; assay: Proliferation of subconfluent HaCaT keratinocytes, number of cells per well determined daily; assay type: cell-based, human; details: n=3
# Protocol: In order to investigate the effect of the hIK1 channel inhibitors clotrimazole and charybdotoxin, either 10 μM clotrimazole, 200 nM charybdotoxin (ChTx) or 1 mM 1-EBIO were/was added to cells which were growing subconfluently and the number of cells per well was determined daily.
# [3] = tested on: HaCaT keratinocytes; assay: BrDU incorporation cell proliferation ELISA in HaCaT keratinocytes
# Protocol: The influence of activators of IK1 on proliferation was investigated using 1-EBIO and zolxazolamine (see above). Firstly, the influence of different concentrations of 1-EBIO on the growth rate of HaCaT cells was measured in the presence and in the absence of serum. For this purpose, 1×10^4 HaCaT cells per well were cultured in keratinocyte growth medium (KGM) for 5 days in a 96-well plate, in order to synchronize the cell cycle, with this being followed by a two-day incubation in the presence of different concentrations of 1-EBIO in KGM (see FIGS. 7 and 8) in the absence (FIG. 7) and in the presence (FIG. 8) of serum. […] 1% DMSO in KGM served as the solvent control. Cell proliferation was measured by the incorporation of bromodideoxyuridine (BrDU) while cell division was measured in accordance with the manufacturer's instructions (‘The Cell Proliferation ELISA, BrDU, Roche). The incorporation of BrDU was quantified by determining the absorption at 450 nm. In FIGS. 7 and 8, the absorption (A[450 nm]) is in each case plotted on the Y axis as a measure of the proliferation rate. Greater absorption reflects greater proliferation.
# [4] = tested on: HaCaT cells; assay: Keratinocyte differentiation by immunostaining with anti-K10 antibody; assay type: cell-based, human; details: 1-EBIO 1 mM, 3 days
# [5] = tested on: HaCaT cells; assay: Immunoblotting of the differentiation markers involucrin, keratin 1 and keratin 10; assay type: cell-based, human; details: 1-EBIO 1, 100, 1000 μM, 4 days; dose-dependent
# Protocol: For this, 5×10^5 HaCaT cells per well were grown in medium in a 6-well plate. […] 1% DMSO in medium was used as the solvent control (lane ‘C’). The cells were incubated for 4 days, with the medium being replaced daily. After 4 days, the protein concentration in the cell lysates was determined (BCA Assay, Pierce). Immunoblotting was then used to compare equal quantities of protein from the different lysates with the keratinocyte differentiation markers involucrin (1:500, Sigma) and keratin 1 and 10 (1:250, Progen) (FIG. 6).
molecule,measurement,setting,value
"CCn1c(=O)[nH]c2ccccc21 [1-EBIO, 1-ethyl-2-benzimidazolinone]",membrane potential (rapid and powerful hyperpolarization to),"[1]; 1-EBIO 1 mM, n=3",−83±3 mV
same,"transient depolarization on adding ATP, compared with controlled conditions",[1]; ATP 10 μM in the presence of 1-EBIO 1 mM,much stronger
same,influence on proliferation,[2]; 1-EBIO 1 mM,inhibited proliferation completely; also recorded: complete inhibition
same,cell morphology and apoptosis under activator,[3],no sign of apoptosis
same,concentration of strongest inhibition of serum-induced proliferation,[3]; 10% FCS,1 mM
same,dose dependence of the inhibition of serum-induced proliferation,[3]; 10% FCS,dose-dependent
same,effect on serum-induced proliferation (BrDU incorporation),"[3]; 10% FCS, different concentrations of 1-EBIO, two-day incubation",inhibit serum-induced proliferation
same,stimulation of cell proliferation (BrDU incorporation),"[3]; absence of serum, different concentrations of 1-EBIO, two-day incubation",not on their own able to stimulate cell proliferation
same,proportion of K10-stained (partially differentiated) cells versus control cells,[4],signficantly reduced
same,"effect on differentiation (involucrin, K1, K10 protein)",[5],inhibit differentiation
Nc1ncnc2c1ncn2[C@@H]1O[C@H](COP(=O)(O)OP(=O)(O)OP(=O)(O)O)[C@@H](O)[C@H]1O [ATP],reversibility of the hyperpolarization,"[1]; 1 μM ATP, n=9",could be reversed rapidly by washing out
same,hyperpolarization,"[1]; 10 μM ATP, n=28",30±2 mV
same,change in the membrane potential on perfusion,"[1]; ATP 1-1000 μM, transient depolarization followed by long-lasting hyperpolarization",biphasic change in the membrane potential
same,duration of the strong hyperpolarization after addition,[1]; ATP concentrations of ≧10 μM,at least 5 min
[Ba+2] [Ba^2+],blockers leading to a comparable depolarization on a plateau during treatment with ATP,[1],None
"CCn1c(=O)[nH]c2cc(Cl)c(Cl)cc21 [DCEBIO, 5,6-dichloro-1-ethyl-1,3-dihydro-2H-benzimidazol-2-one]","concentration for the same electrophysiological effect as 1-EBIO, times less concentrated",[1]; HaCaT cells,300-1000 times
CCCCCCCCCCCCCC(=O)O[C@@H]1[C@@H](C)[C@@]2(O)[C@@H](C=C(CO)C[C@]3(O)C(=O)C(C)=C[C@@H]23)[C@@H]2C(C)(C)[C@]12OC(C)=O [PMA],influence on the effect of ATP,[1],no influence
CC[N+](CC)(CC)CC [TEA],blockers leading to a comparable depolarization on a plateau during treatment with ATP,[1],None
Clc1ccccc1C(c1ccccc1)(c1ccccc1)n1ccnc1 [clotrimazole],"effect on the ATP-induced electrophysiological response, compared with 100 nM ChTx","[1]; clotrimazole 1 μM prior to ATP, n=3",The same effect
same,influence on proliferation,[2]; clotrimazole 10 μM,complete inhibition
same,influence on proliferation,"[2]; clotrimazole 10 μM, listed as Clotrimazole",inhibited proliferation completely
NCCc1c[nH]cn1 [histamine],electrophysiological response compared with ATP,"[1]; histamine 100 μM, n=4",practically identical quantitatively and kinetically
calphostin C,effect on the ATP-mediated change in voltage,[1]; calphostin C 50 nM,no effect
charybdotoxin (QFTNVSCTTSKECWSVCQRLHNTSRGKCMNKKCRCYS),effect on the established ATP-mediated hyperpolarization,"[1]; ChTx 100 nM added after ATP, ATP still present, n=2",complete reversal of the hyperpolarization
same,effect on the ATP-induced electrophysiological response,"[1]; ChTx 100 nM prior to ATP, n=4, potential stayed on a depolarized plateau",completely prevented repolarization
same,effect on the ATP-induced electrophysiological response,"[1]; ChTx 10-100 nM prior to ATP, n=15",retarded repolarization of the rapid depolarization and prevented hyperpolarization
same,inhibition of the ATP-mediated hyperpolarization,[1]; charybdotoxin at various concentrations prior to ATP,dose-dependent inhibition
same,influence on proliferation,[2]; charybdotoxin 200 nM,retarded proliferation; also recorded: growth which was only retarded
